Data on six compounds can be found in US12617814B2, “Neuroactive steroids and methods of use thereof” (Sage Therapeutics, LLC, priority 2013, dated 2026).

The target in assay [1] is T1, NMDA receptor (GRIN1/GRIN2A subunits) (Homo sapiens, UniProt Q05586+Q12879).
T1 construct: expressed in transfected cells
In words: NMDA potentiation, whole-cell patch clamp of HEK cells expressing NMDA receptor. The following applies: for activation at 0.1 µM: HEK293, 0.1 uM compound, read-out: NMDA 1a2A (%) Potentiation 0.1 uM; for activation at 1 µM: HEK293, 1 uM compound, read-out: NMDA 1a2A (%) Potentiation 1 uM. Type of assay: cell-based. The protocol: NMDA potentiation was assessed using either whole cell patch clamp of mammalian cells which expressed NMDA receptors, or using two-electrode voltage clamp (TEVC) of Xenopus Laevis oocytes expressing NMDA receptors.
NMDA/Glycine peak and steady-state currents were recorded from stably transfected cells expressing the NMDA receptor and the modulatory effects of the test items on these currents were investigated.
Cells were stably transfected with human GRIN1 (variant NR1-3). These cells were transiently transfected (Lipofectamine™) with GRIN2A cDNA and CD8 (pLeu) antigene cDNA. About 24-72 hours following transfection 1 μl Dynabeads M-45 CD8 was added to identify successfully transfected cells (Jurman et al., Biotechniques (1994) 17:876-881). Cells were passaged to a confluence of 50-80%. Cells were seeded onto Poly-L-Lysine coated cover slips covered with culture complete medium in a 35 mm culture dish. Confluent clusters of cells are electrically coupled (Pritchett et al., Science (1988), 242:1306-8). Because responses in distant cells are not adequately voltage clamped and because of uncertainties about the extent of coupling (Verdoorn et al., Neuron (1990), 4:919-28), cells were cultivated at a density that enables single cells (without visible connections to neighboring cells) to be measured. Cells were incubated at 37° C. in a humidified atmosphere with 5% CO2 (rel. humidity about 95%). The cells were continuously maintained in and passaged in sterile culture flasks containing a 1:1 mixture of Dulbecco's modified eagle medium and nutrient mixture F-12 (D-MEM/F-12 1×, liquid, with L-Glutamine) supplemented with 9% fetal bovine serum and 0.9% Penicillin/Streptomycin solution. The complete medium was supplemented with 3.0 μg/ml Puromycin.
Whole cell currents were measured with HEKA EPC-10 amplifiers using PatchMaster software. Cell culture dishes for recordings were placed on the dish holder of the microscope and continuously perfused (1 ml/min) with “bath solution” (NaCl 137 mM, KCl 4 mM, CaCl2 1.8 mM, MgCl2 1 mM, HEPES 10 mM, D-Glucose 10 mM, pH (NaOH) 7.4). All solutions applied to cells including the pipette solution were maintained at room temperature (19° C.-30° C.). After formation of a Gigaohm seal between the patch electrodes and transfected individual HEK 293 cells (pipette resistance range: 2.5 MΩ-6.0 MΩ; seal resistance range: >1 GQ) the cell membrane across the pipette tip was ruptured to assure electrical access to the cell interior (whole-cell patch-configuration). At this point the bath solution is switched to “NMDA bath solution” (NaCl 137 mM, KCl 4 mM, CaCl2 2.8 mM, HEPES 10 mM, D-Glucose 10 mM, Cremophore 0.02%, pH (NaOH) 7.4). NMDA inward currents were measured upon application of 30 μM NMDA (and 5.0 μM Glycine) to patch-clamped cells (2 applications) for 5 s. The cells were voltage clamped at a holding potential of −80 mV. For the analysis of test articles, NMDA receptors were stimulated by 30 μM NMDA and 5.0 μM Glycine after sequential pre-incubation of increasing concentrations of the test article. Pre-incubation duration was 30 s. Stimulation duration was 5 s Test articles were dissolved in DMSO to form stock solutions of 0.1 mM and 1 mM. Test articles were diluted to 0.1 μM and 1 μM in “NMDA bath solution”. Both concentrations of test articles were tested on each cell. The same concentration was applied at least three times or until the steady state current amplitude was reached. Every day one cell was tested with 50 μM PREGS (positive control) using the same application protocol to test whether cells were successfully transfected with NMDA receptors.
In general terms: In patch-clamp work, channel activity is measured electrically.

For the next assay, the target named is NMDA (NR1a/NR2A) (Homo sapiens, UniProt Q05586+Q12879). Conditions: cited from earlier work.
NMDA (NR1a/NR2A), sequence (Q12879 23-1464, other chains not shown): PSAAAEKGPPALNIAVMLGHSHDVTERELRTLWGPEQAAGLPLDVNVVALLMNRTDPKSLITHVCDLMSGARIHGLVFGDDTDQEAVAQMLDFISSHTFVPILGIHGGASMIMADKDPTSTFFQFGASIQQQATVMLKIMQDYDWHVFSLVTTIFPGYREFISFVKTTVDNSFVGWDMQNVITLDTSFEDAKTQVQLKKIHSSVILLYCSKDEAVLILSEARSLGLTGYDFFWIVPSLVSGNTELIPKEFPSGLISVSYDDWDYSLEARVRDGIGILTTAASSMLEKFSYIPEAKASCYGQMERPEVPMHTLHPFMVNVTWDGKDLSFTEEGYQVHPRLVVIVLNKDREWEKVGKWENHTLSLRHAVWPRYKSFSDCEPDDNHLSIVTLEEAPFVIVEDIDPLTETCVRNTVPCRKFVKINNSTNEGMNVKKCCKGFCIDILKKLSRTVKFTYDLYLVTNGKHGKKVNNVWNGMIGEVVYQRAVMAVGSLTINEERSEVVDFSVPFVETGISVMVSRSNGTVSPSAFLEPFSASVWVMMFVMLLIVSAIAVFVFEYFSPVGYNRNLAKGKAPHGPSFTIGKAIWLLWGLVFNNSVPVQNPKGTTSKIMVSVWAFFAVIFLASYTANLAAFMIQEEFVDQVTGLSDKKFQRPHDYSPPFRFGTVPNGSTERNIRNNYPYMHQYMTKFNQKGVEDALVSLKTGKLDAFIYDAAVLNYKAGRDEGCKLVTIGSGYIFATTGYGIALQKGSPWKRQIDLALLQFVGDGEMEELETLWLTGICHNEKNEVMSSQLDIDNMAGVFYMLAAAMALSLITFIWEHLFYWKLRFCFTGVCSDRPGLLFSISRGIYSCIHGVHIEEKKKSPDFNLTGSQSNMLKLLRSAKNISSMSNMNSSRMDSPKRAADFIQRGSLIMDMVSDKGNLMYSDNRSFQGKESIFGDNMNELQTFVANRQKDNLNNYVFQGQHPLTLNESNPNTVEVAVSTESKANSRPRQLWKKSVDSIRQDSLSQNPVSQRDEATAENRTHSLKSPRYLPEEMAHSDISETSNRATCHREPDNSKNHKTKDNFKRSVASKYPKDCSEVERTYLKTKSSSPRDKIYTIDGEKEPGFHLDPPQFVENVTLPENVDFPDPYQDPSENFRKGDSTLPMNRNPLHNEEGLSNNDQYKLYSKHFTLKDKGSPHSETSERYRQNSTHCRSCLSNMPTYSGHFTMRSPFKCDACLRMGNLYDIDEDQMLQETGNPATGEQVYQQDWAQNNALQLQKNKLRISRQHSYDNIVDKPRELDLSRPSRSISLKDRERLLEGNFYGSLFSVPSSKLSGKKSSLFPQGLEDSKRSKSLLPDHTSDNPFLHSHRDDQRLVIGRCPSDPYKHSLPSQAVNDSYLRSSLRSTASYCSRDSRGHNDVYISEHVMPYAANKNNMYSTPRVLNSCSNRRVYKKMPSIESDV
The mark [2] stands for this setting: HEK cells, 30 μM NMDA and 5.0 μM Glycine.

T1 sequence (Q12879 23-1464, other chains not shown): as above

For `C[C@H](CCC(C)(C)O)[C@H]1CC[C@H]2[C@@H]3CC=C4C[C@@H](O)CC[C@]4(C)[C@H]3CC[C@]12C` (stereo in doubt) [Org-1, reference compound], in assay [1] (setting [2]), the activation at 0.1 µM is 10 to 75% and the activation at 1 µM is 150 to 250%. For the same compound, on NMDA (NR1a/NR2A), the “modulation of NMDA (NR1a/NR2A)” value was “positive modulator” and the “selectivity NMDA over GABAA” value is “selectively modulate NMDA over GABAA”.

As for `C[C@H](CCC(C)(O)C1CC1)[C@H]1CC[C@H]2[C@@H]3CC=C4C[C@@](C)(O)CC[C@]4(C)[C@H]3CC[C@]12C` (stereo partly drawn) [Compound 9-2], in assay [1] (setting [2]), the activation at 0.1 µM lay in the range of 150 to 250% and the activation at 1 µM was in the range of 150 to 250%.

On to `CC(C)C(C)(O)CC[C@@H](C)[C@H]1CC[C@H]2[C@@H]3CC[C@H]4C[C@@](C)(O)CC[C@]4(C)[C@H]3CC[C@]12C` (stereo partly drawn) [Compound 8-3], for which, in assay [1] (setting [2]), the activation at 0.1 µM fell in the range of 75 to 150% and the activation at 1 µM is above 250%.

As for `C=CCC(C)(O)CC[C@@H](C)[C@H]1CC[C@H]2[C@@H]3CC=C4C[C@@](C)(O)CC[C@]4(C)[C@H]3CC[C@]12C` (stereo partly drawn) [Compound 6-2], in assay [1] (setting [2]), the activation at 0.1 µM is 75 to 150% and the activation at 1 µM fell in the range of 150 to 250%.

For `CCC(C)(O)CC[C@@H](C)[C@H]1CC[C@H]2[C@@H]3CC[C@H]4C[C@@](C)(O)CC[C@]4(C)[C@H]3CC[C@]12C` (stereo partly drawn) [Comparison compound 5, reference compound], the “NMDA 1a2A (%) Potentiation 0.1 uM” value in assay [1] (0.1 uM compound, HEK cells, 30 μM NMDA and 5.0 μM Glycine) is on record as “A (“A” indicates 10-75% potentiation)”. Further, the “NMDA 1a2A (%) Potentiation 1 uM” value in assay [1] (1 uM compound, HEK cells, 30 μM NMDA and 5.0 μM Glycine) is given as “A (“A” indicates 10-75% potentiation)”.

In the case of `CC(C)(O)CCC[C@H]1CC[C@H]2[C@@H]3CC[C@H]4C[C@@](C)(O)CC[C@]4(C)[C@H]3CC[C@]12C` [Comparison compound 4, reference compound], in assay [1] (setting [2]), the activation at 0.1 µM lay within 10 to 75% and the activation at 1 µM is 75 to 150%. Besides, the “loss of NMDA potentiation compared to Comparison Compound 3” value in assay [1] (measured at 0.1 μM concentration) is listed as “five fold”.
